Measurements reported in patent publication US7511036B2, “Dihydrothiazine prodrugs of thiazolium agents” (Synvista Therapeutics, Inc., priority 2003, dated 2009).
Counter-ions that a name gives are not always drawn.

Key:
dog model for diabetes = experiment: Dog model for diabetes, indicators of ventricular elasticity; assay type: in vivo; conditions: indicator of ventricular elasticity
Source text: (§1) Cardiovascular risk correlates more closely with the systolic and the pulse pressure than with the diastolic pressure. In diabetic patients, the cardiovascular risk profile of diabetic patients is strongly correlated to duration of diabetes, glycemic control and blood pressure. Structural matrix proteins contribute to the function of vessels and the heart, and changes in the physical behavior of cardiovascular walls are believed to be important determinants of circulatory function. In elderly individuals, the loss of compliance in the aorta leads to systolic hypertension and isolated systolic hypertension, which in turn expands the arterial wall and thereby diminishes the dynamic range of elasticity. […] These studies indicate that prodrugs of such thiazolium compounds should have a similar effect.

[1] = test system: collagen in cardiovascular tissues; experiment: Mass of collagen in cardiovascular tissues after treatment; conditions: in vivo
Source text: as §1

Type IV collagen = experiment: In situ hybridization studies, Type IV collagen expression; assay type: in vivo
Source text: as §1

TGFbeta = experiment: In situ hybridization studies, TGFbeta expression; assay type: in vivo
Source text: as §1

[2] = test system: elderly patients with pulse pressures greater than 60 mm Hg; experiment: Phase IIa clinical trial; assay type: in vivo, human; conditions: for left ventricular mass: Phase IIa clinical trial, echocardiography
Source text: as §1
Pulse pressure is the difference between systolic and diastolic blood pressure. In a young human, systolic pressure is typically 120 mm Hg and diastolic pressure is 80 mm Hg, resulting in a pulse pressure of 40 mm Hg. With age, in many individuals pulse pressure increases, largely due to the increase in systolic pressure that results from stiff vessel disease. In individuals with pulse pressure greater than 60 mm Hg there is an increased risk of death from cardiovascular morbidities. […] This decrease in pulse pressure was believed to be due primarily to the effect of the agent on lowering the systolic blood pressure.
When the heart pumps blood into the vascular system, the ability of the arteries to expand helps to push blood through the body. When arteries become stiff, as they do in the natural process of aging, the ability of the arteries to expand is diminished which also has consequences for the heart. The heart has to work harder to pump the blood into the stiff arteries, and it eventually hypertrophies (enlarges in size) to accomplish this. A hypertrophied heart is an inefficient pump, and is one of the disorders that leads to congestive heart failure. […] Such a compound can be provided by administration of an N-formyl thiazine compound, (i.e., 2-hydroxy-5,6-dimethyl-2-phenyl-2,3-dihydro-(1,4)thiazine-4-carbaldehyde) and conversion of the compound under, for example, acidic conditions in the stomach, to the corresponding thiazolium salt. The potential clinical benefit of this is to lessen the effort that the heart must expend to push blood throughout the body. The effect is also believed to contribute to preventing hypertrophy and subsequent inefficiency of the heart, which inefficiency would contribute to congestive heart failure.
Atherosclerosis is a disease that involves deposition of blood lipids in plaque in the arteries throughout the body. In coronary arteries, accumulation of plaque progressively leads to reduced coronary flow, with occlusion of the arteries causing focal death of cardiac tissue (myocardial infarction, heart attack). If the amount of tissue that dies is large enough, death ensues. […] Reducing local deposits of plaque should eventually lessen the risk of myocardial infarction and death due to heart attacks.

Rhesus monkeys [3] = conditions: drug treated vs. control eye, baseline and pilocarpine-stimulated; see the '112 application; cited from earlier work
Rhesus monkeys [4] = conditions: pilocarpine-stimulated accommodation; see the '112 application; cited from earlier work
[5] = Conversion of dihydrothiazine to thiazolium chloride under acidic conditions; assay type: physicochemical
Procedure: The following experiment provides evidence that thiazine structures related to compound la can be converted under acidic conditions to thiazolium structures, and thus can serve as pro-drug forms of thiazolium agents.
Compound Ia (2.48 mmol, 0.620 g) was weighed into a 100 mL round bottom flask equipped with magnetic stir bar. Methanol (40 mL) was added, and the solution was stirred until all solid was dissolved. Aqueous hydrochloric acid was added (1N, 3.968 mmol, 4.0 mL) and the reaction solution stirred at ambient temperature for 48 hours. The methanol was removed in vacuo, and the residue was diluted with 25 mL of distilled water. The aqueous layer was extracted with methyl t-butyl ether (2×20 mL). The aqueous layer was concentrated to dryness in vacuo and the residue was crystallized with acetonitrile, methyl-t-butyl-ether (1:1). The crystals were collected via filtration to give 598 mg (90% yield) of 4,5-dimethyl-3-(2-oxo-2-phenylethyl)-thiazolium chloride. […]
In a 15 mL round bottom flask, stirred with a magnetic stirrer, was charged 36 mg (0.16 mmol) of compound Ib (prepared as described by Thornalley et al., Biochemical Pharmacology, vol. 57,pp 303-308, 1999), 2 mL of 1% hydrochloric acid and 2 mL of Ethyl Acetate. Since there was no reaction as monitored by HPLC, 2 mL of 5N Hydrochloric acid, and 2 mL of methanol was added, and the flask was heated to 35° C. […]

Question: Which results are given for `Cc1sc[n+](CC(=O)c2ccccc2)c1C` [3-[2-phenyl-2-oxoethyl]-4,5-dimethyl-thiazolium salt]?
Answer: end diastolic pressure (dog model for diabetes): returned to a value at about the mid-point between the disease impaired value and the value for control dogs; end diastolic volume (dog model for diabetes): returned to a value at about the mid-point between the disease impaired value and the value for control dogs; mass of collagen in cardiovascular tissues [1]: reduction in the mass of collagen; expression of Type IV collagen (Type IV collagen): reduces the expression; expression of TGFbeta (TGFbeta): reduces the expression; left ventricular mass [2]: reduction of left ventricular mass; left ventricular mass ([2]; listed as 3-[2-phenyl-2-oxoethyl]-4,5-dimethyl-thiazolium chloride salt): reduce left ventricular mass; stiffness of arteries (ratio of stroke volume (ml) to pulse pressure (mm Hg)) ([2]; Phase IIa clinical trials): reverse the stiffness of arteries; amount of circulating triglycerides (lipids) ([2]; Phase IIa trial): increased the amount of circulating triglycerides; pulse pressure ([2]; Phase IIa trial, elderly patients with pulse pressures greater than 60 mm Hg, statistically significant): reduced pulse pressure; improvement in fluid outflow facility (ophthalmologic function) (Rhesus monkeys [3]): improvement has been illustrated; improvement in accommodation (Rhesus monkeys [4]): Improvement in accommodation has been illustrated

Question: For `O=CN1C=CSC(O)(c2ccccc2)C1` (centres unmarked) [Ib, 2-Hydroxy-2-Phenyl-2,3-Dihydro-(1,4)thiazine-4-carbaldehyde], which “conversion to thiazolium under acidic conditions” value ([5]; 1% hydrochloric acid and ethyl acetate, monitored by HPLC) is on record?
Answer: no reaction

Question: And the “time until the conversion to thiazolium chloride was finished” value ([5]; after adding 5N hydrochloric acid and methanol, 35° C., HPLC)?
Answer: about 15 h
